In article PMC11011441, “Bioactive Compounds and Potential Health Benefits through Cosmetic Applications of Cherry Stem Extract” (International Journal of Molecular Sciences, 2024):

What was measured:
Assay type in all cases: biochemical
[1] = Hypochlorous acid scavenging (oxidation of DHR to rhodamine); conditions: radical scavenging
Procedure: (§1) The ability of cherry stem extract to inhibit superoxide radical (O2^·−), hypochlorous acid (HOCl), and nitric oxide (NO^·) was evaluated. […] The scavenging properties of cherry stem extract and positive controls against the O2^·− radical were assessed colorimetrically by reduction of NBT to diformazan purple. The ability of the cherry stem extract to inhibit HOCl by inducing the oxidation of DHR to rhodamine was determined. The scavenging activity of cherry stem extract against NO^· was determined by oxidation of DAF-2. To assess the inhibition of O2^·−, NO^·, and HOCl radicals, epicatechin (EPI) and gallic acid (GA) were employed as reference controls. All results were expressed as IC50 value using different concentrations of cherry stem extract and all measurements were performed in triplicate.

[2] = Superoxide radical scavenging (reduction of NBT to diformazan)
Procedure: as §1

[3] = Nitric oxide scavenging (oxidation of DAF-2); conditions: radical scavenging
Procedure: as §1

hyaluronidase (HYALase) = assay: HYALase inhibition assay (turbidity at 600 nm)
Procedure: The potential of cherry stem extract to inhibit hyaluronidase ([…]), collagenase, elastase, tyrosinase, and xanthine oxidase enzymes was evaluated. The methods were carried out following previous studies. The […] inhibition assay involves quantifying the reduction in transmitted light intensity caused by particles generated from the breakdown of hyaluronic acid (HYAL) by the […] enzyme. Absorbance readings were taken at 600 nm. EPI and GA were employed as controls to evaluate […] inhibition. The outcomes from the EPI and GA controls were reported as IC20 values. Results for cherry stem extract were presented as IC50 values at various extract concentrations, except for the enzyme tyrosinase, which was presented as IC55 value at various extract concentrations. All evaluations were performed in triplicate.

elastase = assay: Elastase inhibition (MeOSuc-Ala-Ala-Pro-Val-pNa hydrolysis); conditions: at 51.26 mg/L
Procedure: (§2) The potential of cherry stem extract to inhibit hyaluronidase (HYALase), collagenase, elastase, tyrosinase, and xanthine oxidase enzymes was evaluated. The methods were carried out following previous studies.
The assessment of elastase enzyme inhibition was based on the release of p-nitroaniline resulting from the hydrolysis of the substrate MeOSuc-Ala-Ala-Pro-Val-pNa by elastase. The quantity of p-nitroaniline was gauged through absorbance readings at 405 nm. Elastatinal (ELA) was employed as the control for elastase inhibition. The control result was stated as % inhibition.
(§3) Results for cherry stem extract were presented as IC50 values at various extract concentrations, except for the enzyme tyrosinase, which was presented as IC55 value at various extract concentrations. All evaluations were performed in triplicate.

collagenase = assay: Collagenase inhibition (FALGPA degradation)
Procedure: as §2
The evaluation of collagenase enzyme activity is based on the colorimetric analysis of the degradation of the FALGPA substrate by the enzyme. The absorbance measurements were taken at 335 nm. Phenanthroline (PHE) was used as the control to assess collagenase inhibition, and the IC50 value was quantified as the control.
as §3

tyrosinase = assay: Tyrosinase inhibition (Colorimetric Tyrosinase Inhibitor Detection Kit); conditions: at 21.3 mg/L
Procedure: The potential of cherry stem extract to inhibit hyaluronidase ([…]), collagenase, elastase, tyrosinase, and xanthine oxidase enzymes was evaluated. The methods were carried out following previous studies. The evaluation of tyrosinase inhibition was conducted using a “Colorimetric Tyrosinase Inhibitor Detection Kit” sourced from Sigma-Aldrich, USA. Inhibition control was established with kojic acid (KA). The control outcome was represented as % inhibition. Results for cherry stem extract were presented as IC50 values at various extract concentrations, except for the enzyme tyrosinase, which was presented as IC55 value at various extract concentrations. All evaluations were performed in triplicate.

| SMILES | HYALase inhibitory concentration at 20% (IC20) (hyaluronidase (HYALase)) | HOCl inhibitory concentration at 50% [1] [mg/L] | O2^·− inhibitory concentration at 50% [2] [mg/L] | NO^· inhibitory concentration at 50% [3] [mg/L] | further results |
| --- | --- | --- | --- | --- | --- |
| CC(C)C[C@H](NC(=O)N[C@H](C(=O)N[C@@H](CCC(N)=O)C(=O)N[C@@H](C)C=O)[C@@H]1CCNC(=N)N1)C(=O)O [ELA, elastatinal] |  |  |  |  | Elastase % inhibition (elastase): 53 ± 5 ^4% |
| c1cnc2c(c1)ccc1cccnc12 [PHE, 1, 10-phenanthroline] |  |  |  |  | Collagenase inhibitory concentration at 50% (collagenase): 83 ± 2 mg/L |
| O=c1cc(CO)occ1O [KA, Kojic acid] |  |  |  |  | Tyrosinase % inhibition (tyrosinase): 49 ± 6 ^3% |

Continued, in another order:

| HYALase inhibitory concentration at 20% (IC20) (hyaluronidase (HYALase)) | SMILES | HOCl inhibitory concentration at 50% [1] [mg/L] | O2^·− inhibitory concentration at 50% [2] [mg/L] | NO^· inhibitory concentration at 50% [3] [mg/L] | further results |
| --- | --- | --- | --- | --- | --- |
| 102 ± 4 ^5 mg/L | O=C(O)c1cc(O)c(O)c(O)c1 [GA, gallic acid] | 3.8 ± 0.3 | 50 ± 3 | 1.4 ± 0.3 |  |
| 167 ± 6 ^5 mg/L | Oc1cc(O)c2c(c1)O[C@H](c1ccc(O)c(O)c1)[C@H](O)C2 [EPI, epicatechin] | 0.18 ± 0.01 | 70 ± 5 | 0.87 ± 0.02 |  |
